Test results taken from patent US11919855B2, “Substituted pyrrolidones and piperidones as small molecule inhibitors of EZH2 and EED protein binding” (Northwestern University, priority 2021, dated 2024).

Molecular target: EED-EZH2 (Homo sapiens (Human), UniProt O75530)
Assay: EED-EZH2 AlphaScreen assay
Type: binding
Details: 8.7 nM EZH2, 5.0 nM EED, read-out: IC50 Potency Code
Method: Biological activity of exemplary substituted pyrrolidones and piperidones was determined by the EED-EZH2 AlphaScreen assay according the following methodology.
EZH2 (non-complexed), His-GST-tags
Anti-FLAG AlphaLISA Acceptor Beads
AlphaScreen GSH Donor Beads
Assay Protocol (Calculated for 384 Wells or 1 Plate)
• 1. Thaw EED and EZH2 proteins on ice. • 2. Prepare 1× HMT Buffer 2: • 1.5 mL of 4× HMT Buffer 2+4.5 mL ddH2O. • 3. Prepare 1.2× EED-EZH2 solution in 1× HMT Buffer 2: 3.4 mL total • 2.1 uL of EED (0.41 mg/mL, 8.04 uM, 1:1608 dilution)+14 uL of EZH2 (0.24 mg/mL, 2.11 uM, 1:243 dilution)+3.384 mL of 1× HMT Buffer 2 • 4. Prepare 1.2× EZH2 solution in 1× HMT Buffer 2 (positive control): 0.168 mL total • 0.69 uL of EZH2 (0.24 mg/mL, 2.11 uM, 1:243 dilution)+167 uL of 1× HMT Buffer 2 • 5. Add 10 μL of 1.2× EED-EZH2 or 1.2× EZH2 solution to each well. • 6. Add compounds in DMSO via Echo transfer and 30 nL DMSO for control wells. • 7. Centrifuge at 15,000 rpm for 10 seconds and allow to incubate at rt for 1 hour. Step Two • 1. Prepare 6× Anti-FLAG and GSH Donor beads in 1× HMT Buffer 2 in the dark: 1 mL total • 10 uL of Anti-FLAG (1:100 dilution)+5 uL of GSH Donor (1:200 dilution)+985 uL of 1× HMT Buffer 2 • 2. Add 2 μL of bead solution to each well. • 3. Centrifuge at 15,000 rpm for 10 seconds and allow to incubate at rt for 1 hour in the dark. • 4. Read plate. Final Concentrations: • 12 μL volume per well • 8.7 nM EZH2 • 5.0 nM EED • DMSO<0.5% Calculations: • 1. Average EZH2 only wells (positive control) and subtract from all other wells. • 2. Average EED-EZH2 only wells (negative control) to indicate 100% signal or 0% inhibition. • 3. Normalize each well to the average 100% signal from step 2. • 4. Report either as normalized % inhibition or normalized % signal. • Use GraphPad to Calculate IC50.

Sequence of EED-EZH2 (O75530 2-441): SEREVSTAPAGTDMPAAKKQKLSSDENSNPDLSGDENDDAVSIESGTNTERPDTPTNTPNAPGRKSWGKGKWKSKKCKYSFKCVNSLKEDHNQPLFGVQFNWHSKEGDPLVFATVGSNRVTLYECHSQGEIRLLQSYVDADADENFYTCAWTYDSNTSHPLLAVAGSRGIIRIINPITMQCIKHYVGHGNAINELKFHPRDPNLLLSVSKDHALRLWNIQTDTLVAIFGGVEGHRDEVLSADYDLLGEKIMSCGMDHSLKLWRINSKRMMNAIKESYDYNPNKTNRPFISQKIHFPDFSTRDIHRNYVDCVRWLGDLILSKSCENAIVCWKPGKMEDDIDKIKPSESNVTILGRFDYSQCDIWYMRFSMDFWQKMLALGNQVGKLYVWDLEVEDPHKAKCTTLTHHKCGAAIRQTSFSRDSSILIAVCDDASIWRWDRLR

SMILES | IC50 [µM]
Cc1ccc(O)c(C(=O)N[C@@H]2CC(=O)N(Cc3ccc(Cl)c(Cl)c3)C2)c1 [NUCC-0202977] | 10 to 50
Cc1ccc(O)c(C(=O)N[C@@H]2CC(=O)N(Cc3ccc(C(F)(F)F)cc3)C2)c1 [NUCC-0202978] | > 50
Cc1ccc(O)c(C(=O)N[C@H]2CC(=O)N(C3C=Cc4ccccc43)C2)c1 (some centres unmarked) [NUCC-0202979] | 10 to 50
CC1(C)C(=O)N(Cc2ccccc2C(F)(F)F)C[C@H]1NC(=O)c1cc(C(F)(F)F)ccc1O [NUCC-0223626] | 1 to 10
O=C(NCC1CC(=O)N(Cc2ccccc2C(F)(F)F)C1)c1cc(C(F)(F)F)ccc1O (centres unmarked) [NUCC-0223627] | < 1
CC1(C)C(=O)N(Cc2ccccc2C(F)(F)F)CC1NC(=O)c1cc(C(F)(F)F)ccc1O (centres unmarked) [NUCC-0223629] | 10 to 50
O=C1CC(Nc2ncnc3ccc(C(F)(F)F)cc23)CN1Cc1ccccc1C(F)(F)F (centres unmarked) [NUCC-0223632] | > 50
Nc1ccc(C(F)(F)F)cc1C(=O)NC1CC(=O)N(Cc2ccccc2C(F)(F)F)C1 (centres unmarked) [NUCC-0223633] | > 50
Nc1ccc(F)cc1C(=O)NC1CC(=O)N(Cc2ccccc2C(F)(F)F)C1 (centres unmarked) [NUCC-0223634] | > 50
Nc1ccc(Cl)cc1C(=O)NC1CC(=O)N(Cc2ccccc2C(F)(F)F)C1 (centres unmarked) [NUCC-0223635] | > 50
O=C(NC1CCC(=O)N(Cc2ccccc2C(F)(F)F)C1)c1cc(C(F)(F)F)ccc1O (centres unmarked) [NUCC-0223818] | 1 to 10
O=C(NC1CCC(=O)N(Cc2ccccc2C(F)(F)F)C1)c1cc(Cl)ccc1O (centres unmarked) [NUCC-0223819] | 1 to 10
O=C(NC1CCC(=O)N(Cc2ccccc2C(F)(F)F)C1)c1ccc(C(F)(F)F)cc1O (centres unmarked) [NUCC-0223820] | > 50
O=C(NC1CCN(Cc2ccccc2C(F)(F)F)C1=O)c1cc(C(F)(F)F)ccc1O (centres unmarked) [NUCC-0223821] | < 1
O=C(NC1CCN(Cc2ccccc2C(F)(F)F)C1=O)c1ccc(C(F)(F)F)cc1O (centres unmarked) [NUCC-0223822] | > 50
O=C(NC1CCN(Cc2ccccc2C(F)(F)F)C1=O)c1cccc(C(F)(F)F)c1O (centres unmarked) [NUCC-0223823] | > 50
O=C(NC1CCN(Cc2ccccc2C(F)(F)F)C1=O)c1cc(Cl)ccc1O (centres unmarked) [NUCC-0223824] | > 50
O=C1C(Nc2ncnc3ccc(C(F)(F)F)cc23)CCN1Cc1ccccc1C(F)(F)F (centres unmarked) [NUCC-0223825] | > 50
O=C1CCC(Nc2ncnc3ccc(C(F)(F)F)cc23)CN1Cc1ccccc1C(F)(F)F (centres unmarked) [NUCC-0223826] | > 50
COC(=O)c1ccccc1CN1CC(NC(=O)c2cc(C(F)(F)F)ccc2O)CCC1=O (centres unmarked) [NUCC-0226237] | 1 to 10
O=C(NC[C@H]1CC(=O)N(Cc2cccc(F)c2)C1)c1cc(C(F)(F)F)ccc1O [NUCC-0226243] | < 1

Results, then the molecule that gave them:

IC50 [µM] | SMILES
< 1 | O=C(N[C@H]1CC(=O)N(Cc2ccccc2C(F)(F)F)C1)c1cc(C(F)(F)F)ccc1O [NUCC-0223624]
< 1 | O=C(NC1CC(=O)N(Cc2cccc(C(F)(F)F)c2)C1)c1cc(C(F)(F)F)ccc1O (centres unmarked) [NUCC-0223625]
< 1 | O=C(N[C@@H]1CC(=O)N(Cc2ccccc2C(F)(F)F)C1)c1cc(C(F)(F)F)ccc1O [NUCC-0223628]
1 to 10 | O=C(NC1CCN(Cc2cccc(C(F)(F)F)c2)C1=O)c1cc(C(F)(F)F)ccc1O (centres unmarked) [NUCC-0226232]
< 1 | O=C(NCC1CC(=O)N(Cc2cccc(C(F)(F)F)c2)C1)c1cc(C(F)(F)F)ccc1O (centres unmarked) [NUCC-0226233]
1 to 10 | O=C(N[C@H]1CC(=O)N(Cc2cccc(C(F)(F)F)c2)C1)c1cc(C(F)(F)F)ccc1O [NUCC-0226234]
1 to 10 | O=C(N[C@@H]1CC(=O)N(Cc2cccc(C(F)(F)F)c2)C1)c1cc(C(F)(F)F)ccc1O [NUCC-0226235]
< 1 | CC1(C)C(=O)N(Cc2cccc(C(F)(F)F)c2)CC1NC(=O)c1cc(C(F)(F)F)ccc1O (centres unmarked) [NUCC-0226236]
1 to 10 | O=C(N[C@H]1CCN(Cc2cccc(C(F)(F)F)c2)C1=O)c1cc(C(F)(F)F)ccc1O [NUCC-0226238]
1 to 10 | O=C(NCC1CCC(=O)N1Cc1cccc(C(F)(F)F)c1)c1cc(C(F)(F)F)ccc1O (centres unmarked) [NUCC-0226240]
1 to 10 | O=C(NC[C@@H]1CCC(=O)N1Cc1cccc(C(F)(F)F)c1)c1cc(C(F)(F)F)ccc1O [NUCC-0226241]
1 to 10 | O=C(NC[C@H]1CCC(=O)N1Cc1cccc(C(F)(F)F)c1)c1cc(C(F)(F)F)ccc1O [NUCC-0226242]
< 1 | O=C(NC[C@@H]1CC(=O)N(Cc2cccc(C(F)(F)F)c2)C1)c1cc(C(F)(F)F)ccc1O [NUCC-0226244]
1 to 10 | O=C(N[C@@H]1CCN(Cc2cccc(C(F)(F)F)c2)C1=O)c1cc(C(F)(F)F)ccc1O [NUCC-0226245]
